From patent US7790896B2, “RNA-selective probes for live cell imaging of nuclear structure and function” (New York University, priority 2006, dated 2010)

Key:
[1] = test system: 3T3 fibroblast cells, 3T3-L1 adipocyte cells, Hela cells and A549 human lung carcinoma cells; assay: Secondary screening: live cell nuclear imaging properties in four cell lines; type: cell-based, mouse; conditions: dye 25 μM
Protocol: All cell staining imaging followed the same procedure. Generally, dyes in dry state were first dissolved in DMSO to obtain the stock solution. The stock solutions were then added directly to the cell culture wells to reach the desired concentration. Total DMSO was lower than 0.1%. After adding dyes, cells were incubated at 37° C. in 5% CO2 for 25 minutes. The medium was then removed and cells were rinsed with fresh medium twice. The cells were then imaged at ambient temperature in the medium. Exposure time was kept less than 5 seconds and adjusted to each dye.
The selected compounds from both primary screens (total 88) were resynthesized in large scale and purified. The compounds' live cell nuclear imaging properties were then tested by four cell lines, including two mouse cell lines: 3T3 fibroblast cells and 3T3-L1 adipocyte cells; and two human cancer cell lines: Hela cells and A549 human lung carcinoma cells. Herein, the final dye concentration in each test was decreased to 25 μM and all the experiments were repeated to establish reproducibility. […] Each of the three dyes contained at least one high affinity nucleic acid functional group (Trotta et al., “Solution Structure of DAPI Selectively Bound in the Minor Groove of a DNA T-T Mismatch-Containing Site: NMR and Molecular Dynamics Studies,” Nucleic Acids Res. 26:4706-4713 (1998); Loontiens et al., “Binding Characteristics of Hoechst 33258 with Calf Thymus DNA, Poly[d(A-T)], and d(CCGGAATTCCGG): Multiple Stoichiometries and Determination of Tight Binding with a Wide Spectrum of Site Affinities,” Biochem. 29:9029-9039 (1990); Zipper et al., “Investigations on DNA Intercalation and Surface Binding by SYBR Green I, Its Structure Determination and Methodological Implications,” Nucleic Acid Res. 32:E103 (2004); Glazer et al., “Stable Dye-DNA Intercalation Complexes as Reagents for High-Sensitivity Fluorescence Detection,” Nature 359:859-861 (1992), which are hereby incorporated by reference in their entirety) in building block II such as the terminal secondary amine for F22 and F112, the trimethoxy for E 144, and the indole for E36.

[2] = test system: 3T3 cells; assay: Cytotoxicity test, MTS assay; type: cell-based
Protocol: Dye DMSO stock solutions were diluted by fresh medium into four desired concentrations ([…], 13.5 μM, 10 μM and 5 μM). Cells were cultured in 96-well plate for 12 hours before experiments. The cell medium was then exchanged with different concentrations of dye medium solutions. Cells were incubated at 37° C. in 5% CO2 for 5, 15, or 24 hours before viability by MTS assay was measured. As for the MTS assay, briefly, 3-(4,5-dimethylthiazol-2-yl)-5-(3-carboxymethoxyphenyl)-2-(4-sulfophenyl)-2H-tetrazolium (MTS) and phenazine methosulfate (PMS) were mixed at a ratio of 20:1 right before the experiments. The cell dye medium solution was exchanged with 80 μL of fresh medium followed by the addition of 20 μL MTS/PMS solution to each well. 100 μM hydrogen peroxide was used as positive control. The cell plates were then incubated at 37° C. in 5% CO2 for 2 hours. Absorbance was measured at 490 nm. The absorbance measured for an untreated cell population under the same experimental conditions was used as the reference point to establish 100% cell viability. Duplicated experiments have been tested.
(20 μM, 13.5 μM, 10 μM, and 5 μM) in A549 and 3T3 cells and the cytotoxicity was measured using standard MTS assay after 5, 15, or 24 hours incubation (FIG. 5A). Generally, there was no toxicity (defined by greater than 50% cell death) associated with any of the dyes at the working concentration (5 μM) after 24 hours incubation. In A549 cell, all three dyes were non-toxic after 24 hours incubation at all concentrations. In 3T3 cells, E144 was non-toxic, but 20 μM of E36 was toxic after 24 hours incubation and 20 μM F22 was toxic after 15 hours incubation. Since the compounds bind to RNA, it is not surprising to see some signs of toxicity at higher concentrations, especially after one doubling period (approximately 22 hours for A549 cells and 20-25 hours for 3T3 cells). […] Additional studies are required to determine if the compounds perturb nucleolar dynamics throughout the cells cycle.

[3] = test system: RNA (16S- and 23S-ribosomal from E. coli) vs. DNA (salmon testes); assay: RNA vs. DNA selectivity titration in solution; type: binding; conditions: E36 5 μM, E144 10 μM, F22 10 μM; nucleic acid 0.195 to 200 μg/mL
Protocol: Samples containing 50 μg/mL RNA in TE buffer with an increasing concentration of compound from 0.15 μM to 10 μM. Shown here is the intensity increase recorded at the emission λmax wavelength of each dye. […] The samples contain fixed concentration of dyes (E36: 5 μM; E144: 10 μM; F22: 10 μM) in TE buffer with an increasing concentration of RNA or DNA from 0.19 μg/mL to 200 μg/mL. Data points were in duplicated in individual experiments, and error bars represent standard deviation.
The fluorescence spectra data in the primary screening and selected dyes titration assay study was obtained by Gemini XS plate reader. RNA solution was prepared right before the assay experiments to avoid possible degradation and contamination. In the primary screening, 1 mg/mL RNA (type VI from torula yeast) buffer solution was used. Point scans were carried out first using five Ex/Em point sets ([…], 400/500, 450/550, 500/600, 550/650 nm). Spectra scans were then carried out for the selected dyes. Excitation wavelengths were set at 350 nm, 400 nm, 450 nm, 500 nm, and 550 nm and the emission wavelengths were scanned. RNA (16S- and 23S-ribosomal from E. coli) and DNA (salmon testes) titration experiments and quantum yield/extinction coefficient determination for the three best dyes were carried out by the plate reader as well. Excitation λmax obtained from F-2500 Hitachi Fluorophotometer was used. Absorbance wavelength was determined by SpectraMax Plus^384 absorbance plate reader. […] was chosen as standard and 480 nm was used as excitation wavelength in the scanning for quantum yield determination.
A set of solution assay experiments were then carried out to investigate the dyes' selectivity to bind RNA vs. DNA in vitro. With a fixed concentration of dye (E36 5 μM, E144 10 μM, and F22 10 μM), the fluorescent intensity at various nucleic acid concentrations (0.195 μg/mL to 200 μg/mL) was determined at the appropriate emission λmax wavelength. SYTO®RNASelect (5 μM) and Hoechst 33258 (5 μM) dyes were used as standards for RNA selective and DNA selective dyes (FIG. 3B).

Structure (SMILES)	Live cell nuclear imaging properties (basis of selection) [1]	Cytotoxicity (toxic = greater than 50% cell death) ([2]; 20 μM, 24 hours incubation)	Fluorescent intensity response to RNA vs. DNA [3]	Cytotoxicity (toxic = greater than 50% cell death) ([2]; 20, 13.5, 10 and 5 μM, 5, 15 or 24 hours)	Cytotoxicity (toxic = greater than 50% cell death) ([2]; 20 μM, 15 hours incubation)
C[n+]1c(/C=C/c2c[nH]c3ccccc23)ccc2ccccc21 [Dye E36]	selective nucleolar targeting, high fluorescence intensity, low photobleaching, and low cellular toxicity	toxic	higher response to RNA than to DNA	–	–
COc1cc(OC)c(/C=C/c2ccc3ccccc3[n+]2C)c(OC)c1 [Dye E144]	selective nucleolar targeting, high fluorescence intensity, low photobleaching, and low cellular toxicity	–	almost same binding affinity to both RNA and DNA	non-toxic	–
COc1ccc2c(ccc(/C=C/c3ccc(N(C)C)cc3)[n+]2C)c1 [Dye F22]	selective nucleolar targeting, high fluorescence intensity, low photobleaching, and low cellular toxicity	–	higher response to RNA than to DNA	–	toxic
